The values below come from PMC8495455, “Discovery of a transdermally deliverable pentapeptide for activating AdipoR1 to promote hair growth” (EMBO Molecular Medicine, 2021).

The test system of assay [1] is IGF-1 mRNA. The assay can be described thus: qRT-PCR growth factor gene expression in DP cells, IGF-1. In kind it is cell-based, human. The note with it: for mRNA_IGF1: DP cells. The source says: Next, we investigated the downstream effects of P5 on hair growth factor genes and proteins in DP cells. […] We tested whether P5 can also increase the mRNA levels and proteins of hair growth factors in DP cells: IGF‐1, VEGF, HGF, platelet‐derived growth factor alpha (PDGFA), and fibroblast growth factor (FGF) 7, which are known to induce or maintain the anagen phase of the hair cycle (Jindo et al, [1994]; Philpott et al, [1994]; Yano et al, [2001]; Jang, [2005]; Tomita et al, [2006]; Iino et al, [2007]).
Total RNA was isolated from P5‐treated DP cells using RNAiso Plus (#9109; TaKaRa). We used the total RNA (1 µg) for cDNA synthesis using a RevertAid First Strand cDNA Synthesis Kit (Thermo Fisher) according to the manufacturer's instructions. The mRNA expression levels were quantified on a 7500 Real‐time PCR System (Thermo Fisher) using TB Green Premix Ex Taq (TaKaRa Bio): human IGF‐1, VEGF, HGF, PDGFA, FGF7, and glyceraldehyde 3‐phosphate dehydrogenase (GAPDH) (Appendix Table S2). The relative expression levels of each gene were determined by the 2^‐ΔΔCT method.
For orientation: Quantitative PCR measures a nucleic acid by following its amplification.

The test system of assay [2] is human ORS cells. The assay can be described thus: MTT cell proliferation assay, ORS cells. In kind it is cell-based. The note with it: 0.5 or 5 μg/ml, 48 h, Paired t-test vs control. The source says:
To design transdermally deliverable AdipoR1 agonist, we further assessed the 15‐mer sequence by cutting it into several 5‐mer peptides (Fig EV1B) (Bos & Meinardi, [2000]). Based on the fact that AdipoRs are expressed in HF cells, including dermal papilla (DP) and outer root sheath (ORS) cells (Won et al, [2012]), we performed a cell proliferation assay on human DP and ORS cells to see if there is any potential biological effect of the 5‐mer peptides on the human HF cells.
Dermal papilla cells and ORS cells were seeded into a 96‐well plate (1.0 × 10^4 cells/well) with serum‐free culture media for 24 h and then treated with each candidate 5‐mer peptide (in 0.5 μg/ml or 5 μg/ml) for 48 h. After the addition of MTT solution (20 μl, 5 mg/ml) to each well, the cells were incubated for 4 h at 37°C in the dark room and then incubated with dimethyl sulfoxide (DMSO, 200 μl) for 20 min at room temperature. The samples were assessed by measuring the absorbance at 570 nm with an absorbance microplate reader (VersaMax).
A general note: Tetrazolium assays rely on reduction of a dye to a coloured formazan, in cell work by metabolically active cells.

The test system of assay [3] is C57BL/6 (WT) mice. The assay can be described thus: Mouse hair cycle modulation, histology and anagen induction score, WT mice. The class given is in vivo. The source says:
First, we topically applied P5 and minoxidil as a positive control (Messenger & Rundegren, [2004]) on wildtype (WT) mouse. […] Overall, the hair cycle score was higher in the P5‐treated mice than vehicle‐treated mice (Fig 4B). […] Collectively, P5 induces anagen hair cycle in vivo.
Paraffin‐embedded mouse cutaneous back tissue was sectioned (4 μm thickness) and stained with hematoxylin and eosin. For IF staining, human ORS cells cultured in FiTC‐P5, sectioned paraffin‐embedded human HFs (7 μm thickness), and sectioned paraffin‐embedded mouse cutaneous dorsal tissue or human skin tissue (5 μm thickness) were incubated at 4°C overnight with the following primary antibodies diluted in the diluent reagent (Invitrogen): phospho‐AMPK (#2535, 1:100; Cell Signaling), Ki‐67 (#M7240, 1:200; Dako), versican (#ab177480, 1:200; Abcam), or AdipoR1 antibody (#ab126611, 1:200; Abcam). After three washes with PBS, the slides were incubated with the secondary Alexa Fluor 488‐labeled anti‐mouse or rabbit IgG antibody (#ab150077, #ab150113, 1:200; Invitrogen), or Alexa Fluor 594‐labeled anti‐rabbit IgG antibody (#a11012, 1:200; Invitrogen) at 25°C for 1 h. Nuclei were counterstained with 4′,6‐diamidino‐2‐phenylindole (DAPI; #D1306, 1:1,000; Invitrogen). Microscopic observations were performed with a Nikon Eclipse Ci‐L microscope (Nikon). IF intensity was observed and recorded with a Nikon Eclipse Ni‐E fluorescence microscope (Nikon).
For the hair cycle modulation experiment, Adipoq ^−/− (stock #008195; JAX) (Ma et al, [2002]), Adipor1 ^−/− (Yamauchi et al, [2007]; Okada‐Iwabu et al, [2013]), or C57BL/6 (KOATECH) female mice was used (Müller‐Röver et al, [2001]). They were housed (up to four animals per cage; 23 ± 2°C, 8:00–20:00, 12 h/12 h light/dark cycle). Mice were fed a standard chow diet and provided food and water ad libitum. Mice were randomly allocated and shaved dorsally at 7.5 weeks of age. Only mice in telogen were included for the further experiments (Müller‐Röver et al, [2001]). From 8 weeks of age, the shaved dorsal area was treated with vehicle control (ethanol and polyethylene glycol, 30% and 70% v/v), P5 (0.1 mM), or minoxidil (3%) every day. The mouse hair growth score (a value from 0 to 100 based on the skin pigmentation and hair shaft density) was monitored and documented at designated days with the experimenters being blind to the conditions, following a previous study (Chai et al, [2019]). A higher score corresponds to a transition from telogen to anagen. On day 35, we obtained dorsal cutaneous tissue for histological analysis: anagen induction scores (calculated using an assigned arbitrary score; telogen = 1, anagen I–VI = 2–7) (Müller‐Röver et al, [2001]).

In the case of “GLYYF [P5, GST-fused (GST-P5) in pulldown assays]”, the mRNA_IGF1 in assay [1] (P5 5μM, relative to Control = 1, replicate 1) is 1.775; in assay [1] (P5 5μM, relative to Control = 1, replicate 2), 0.9141; in assay [1] (P5 5μM, relative to Control = 1, replicate 3), 1.9981; in assay [1] (P5 5μM, relative to Control = 1, replicate 4) it was 0.5956; in assay [1] (P5 5μM, relative to Control = 1, replicate 5), 0.9696; in assay [1] (P5 25μM, relative to Control = 1, replicate 1) it was 4.048. Besides, the mRNA_IGF1 in assay [1] (P5 25μM, relative to Control = 1, replicate 2) is 1.581; in assay [1] (P5 25μM, relative to Control = 1, replicate 3) it was 3.012; in assay [1] (P5 25μM, relative to Control = 1, replicate 4), 4.414; in assay [1] (P5 25μM, relative to Control = 1, replicate 5), 1.2502. Further, the “IGF-1 mRNA expression” value in assay [1] (P5-treated DP cells, n = 5) is on record as “significantly increased”. The “Cell proliferative effect, ORS cells” value in assay [2] is on record as “significant cell proliferative effects”. The “Histological examination of HFs” value in assay [3] (H&E) was “anagen HFs were noticeable”. Moreover, in assay [3] (One-way ANOVA with Tukey's test), the “Anagen induction scores vs vehicle” value is listed as “significantly higher”.
